Test results taken from PubChem BioAssay AID2060501 (Molecular Pharmacology Branch, DTP, NCI, 2025).

System: 282377-053-R-J1-PDC complex spheroids, viability
Assay: Anticancer human tumor 282377-053-R-J1-PDC patient-derived colon adenocarcinoma cell line growth inhibition [GQUAD]
Conditions: for IC50: curve of first compound; for viability, T/C: stronger effect = lower value
Outline: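 Tumor cells were grown as complex spheroids with HUVEC endothelial cells and mesenchymal stem cells as stroma. G-quadruplex stabilizers were combined with targeted agents over half-log dilutions from near the clinical Cmax, or from 10 microM.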

[1] = second compound 0.0316 µM, first compound 0.0316 µM
[2] = second compound 0.0316 µM, first compound 0.1 µM
[3] = second compound 0.0316 µM, first compound 0.316 µM
[4] = second compound 0.0316 µM, first compound 1 µM
[5] = second compound 0.0316 µM, first compound 3.16 µM
[6] = second compound 0.0316 µM, first compound 10 µM
[7] = second compound 0.1 µM, first compound 0.0316 µM
[8] = second compound 0.1 µM, first compound 0.1 µM
[9] = second compound 0.1 µM, first compound 0.316 µM
[10] = second compound 0.1 µM, first compound 1 µM
[11] = second compound 0.1 µM, first compound 3.16 µM
[12] = second compound 0.1 µM, first compound 10 µM
[13] = second compound 0.316 µM, first compound 0.0316 µM
[14] = second compound 0.316 µM, first compound 0.1 µM
[15] = second compound 0.316 µM, first compound 0.316 µM
[16] = second compound 0.316 µM, first compound 1 µM
[17] = second compound 0.316 µM, first compound 3.16 µM
[18] = second compound 0.316 µM, first compound 10 µM
[19] = second compound 1 µM, first compound 0.0316 µM
[20] = second compound 1 µM, first compound 0.1 µM
[21] = second compound 1 µM, first compound 0.316 µM
[22] = second compound 1 µM, first compound 1 µM
[23] = second compound 1 µM, first compound 3.16 µM
[24] = second compound 1 µM, first compound 10 µM
[25] = second compound 3.16 µM, first compound 0.0316 µM
[26] = second compound 3.16 µM, first compound 0.1 µM
[27] = second compound 3.16 µM, first compound 0.316 µM
[28] = second compound 3.16 µM, first compound 1 µM
[29] = second compound 3.16 µM, first compound 3.16 µM
[30] = second compound 3.16 µM, first compound 10 µM
[31] = second compound 10 µM, first compound 0.0316 µM
[32] = second compound 10 µM, first compound 0.1 µM
[33] = second compound 10 µM, first compound 0.316 µM
[34] = second compound 10 µM, first compound 1 µM
[35] = second compound 10 µM, first compound 3.16 µM
[36] = second compound 10 µM, first compound 10 µM
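Note: spheroids exposed to compounds for 7 days before readout.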
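Throughout, for viability, T/C: percent of vehicle DMSO control viability with 100% = untreated-like growth.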

COc1cccc2c1C(=O)c1c(O)c3c(c(O)c1C2=O)CC(O)(C(=O)CO)CC3OC1CC(N)C(O)C(C)O1 (stereo unspecified) + Cc1[nH]c2ccc(F)cc2c1-c1nc2c3cccnc3c3ncccc3c2[nH]1
IC50 (second compound 0.0316 µM): 1350 nM | IC50 (second compound 0.1 µM): 1320 nM | IC50 (second compound 0.316 µM): 1080 nM | IC50 (second compound 1 µM): 991 nM | IC50 (second compound 3.16 µM): 222 nM | IC50 (second compound 10 µM): < 31.6 nM | viability, T/C [1]: 108% | viability, T/C [2]: 99.2% | viability, T/C [3]: 86.4% | viability, T/C [4]: 64.1% | viability, T/C [5]: 18.5% | viability, T/C [6]: 1.16% | viability, T/C [7]: 94.4% | viability, T/C [8]: 114% | viability, T/C [9]: 81.3% | viability, T/C [10]: 64% | viability, T/C [11]: 16.8% | viability, T/C [12]: 1.17% | viability, T/C [13]: 98.1% | viability, T/C [14]: 129% | viability, T/C [15]: 83.4% | viability, T/C [16]: 54% | viability, T/C [17]: 16.8% | viability, T/C [18]: 0.84% | viability, T/C [19]: 106% | viability, T/C [20]: 116% | viability, T/C [21]: 85.3% | viability, T/C [22]: 47.3% | viability, T/C [23]: 22% | viability, T/C [24]: 0.99% | viability, T/C [25]: 78% | viability, T/C [26]: 74.3% | viability, T/C [27]: 32% | viability, T/C [28]: 29.8% | viability, T/C [29]: 9.5% | viability, T/C [30]: 0.94% | viability, T/C [31]: 36.5% | viability, T/C [32]: 47.2% | viability, T/C [33]: 23.8% | viability, T/C [34]: 18.4% | viability, T/C [35]: 7.13% | viability, T/C [36]: 0.99%

Nc1ccn(C2OC(CO)C(O)C2(F)F)c(=O)n1 (stereo unspecified) + Cc1[nH]c2ccc(F)cc2c1-c1nc2c3cccnc3c3ncccc3c2[nH]1
IC50 (second compound 0.0316 µM): 211 nM | IC50 (second compound 0.1 µM): 222 nM | IC50 (second compound 0.316 µM): 216 nM | IC50 (second compound 1 µM): 228 nM | IC50 (second compound 3.16 µM): 81 nM | IC50 (second compound 10 µM): < 31.6 nM | viability, T/C [1]: 119% | viability, T/C [2]: 74.1% | viability, T/C [3]: 35.8% | viability, T/C [4]: 30.9% | viability, T/C [5]: 29.4% | viability, T/C [6]: 21.1% | viability, T/C [7]: 106% | viability, T/C [8]: 81.1% | viability, T/C [9]: 35.8% | viability, T/C [10]: 29.5% | viability, T/C [11]: 31.8% | viability, T/C [12]: 18.9% | viability, T/C [13]: 97% | viability, T/C [14]: 86.3% | viability, T/C [15]: 32% | viability, T/C [16]: 28.4% | viability, T/C [17]: 26.7% | viability, T/C [18]: 20.5% | viability, T/C [19]: 105% | viability, T/C [20]: 74.4% | viability, T/C [21]: 37.4% | viability, T/C [22]: 30.1% | viability, T/C [23]: 23% | viability, T/C [24]: 16% | viability, T/C [25]: 74.8% | viability, T/C [26]: 44.5% | viability, T/C [27]: 18.8% | viability, T/C [28]: 14.9% | viability, T/C [29]: 17.6% | viability, T/C [30]: 9.41% | viability, T/C [31]: 39.2% | viability, T/C [32]: 28.9% | viability, T/C [33]: 16.2% | viability, T/C [34]: 10.3% | viability, T/C [35]: 10.9% | viability, T/C [36]: 8.65%

O=c1[nH]cc(F)c(=O)[nH]1 + Cc1[nH]c2ccc(F)cc2c1-c1nc2c3cccnc3c3ncccc3c2[nH]1
IC50 (second compound 0.0316 µM): > 10000 nM | IC50 (second compound 0.1 µM): > 10000 nM | IC50 (second compound 0.316 µM): > 10000 nM | IC50 (second compound 1 µM): > 10000 nM | IC50 (second compound 3.16 µM): > 10000 nM | IC50 (second compound 10 µM): < 31.6 nM | viability, T/C [1]: 92.8% | viability, T/C [2]: 104% | viability, T/C [3]: 126% | viability, T/C [4]: 88.8% | viability, T/C [5]: 78.2% | viability, T/C [6]: 74% | viability, T/C [7]: 110% | viability, T/C [8]: 111% | viability, T/C [9]: 114% | viability, T/C [10]: 87.5% | viability, T/C [11]: 84.1% | viability, T/C [12]: 82% | viability, T/C [13]: 115% | viability, T/C [14]: 106% | viability, T/C [15]: 93.7% | viability, T/C [16]: 95.1% | viability, T/C [17]: 75.8% | viability, T/C [18]: 69.3% | viability, T/C [19]: 108% | viability, T/C [20]: 112% | viability, T/C [21]: 117% | viability, T/C [22]: 91.2% | viability, T/C [23]: 76.4% | viability, T/C [24]: 68.4% | viability, T/C [25]: 75.7% | viability, T/C [26]: 80.2% | viability, T/C [27]: 72% | viability, T/C [28]: 49.9% | viability, T/C [29]: 58.8% | viability, T/C [30]: 54.1% | viability, T/C [31]: 41.1% | viability, T/C [32]: 40.5% | viability, T/C [33]: 50.8% | viability, T/C [34]: 42% | viability, T/C [35]: 40% | viability, T/C [36]: 34.4%
